Measurements: patent US20230019094A1, “NOVEL COMPOUND AND PHARMACEUTICAL COMPOSITION FOR PREVENTION OR TREATMENT OF CANCER COMPRISING SAME” (HOLOSMEDIC, priority 2019, published 2023)

Tests used:
Format in all cases: cell-based
SKOV3-TR [1] = experiment: Crystal violet staining, cell survival rate and cell count, resistant line; conditions: 3 days; for anticancer-enhancing effect of doxetaxel, optical density at 570 nm (crystal violet) / anticancer-enhancing effect of paclitaxel, optical density at 570 nm (crystal violet): S-form 0.5 μM or 2 μM pretreated 4 hours; for anticancer-enhancing effect of doxetaxel, optical density at 570 nm (crystal violet): then 0.9 μM doxetaxel, compared to doxetaxel+ethanol group; for anticancer-enhancing effect of paclitaxel, optical density at 570 nm (crystal violet): then 4 μM paclitaxel, compared to paclitaxel+ethanol group; for optical density at 570 nm (crystal violet), anticancer drug alone: 4 μM paclitaxel or 0.9 μM doxetaxel, compared to None or DMSO-treated groups
Method: (§1) The two cancer cell lines growing on a 12-well plate were pretreated with 102 S-forms at a low concentration (0.5 μM) and a high concentration (2 μM) for 4 hours, and the SKOV3-TR cell line was then treated with 4 μM paclitaxel, and the SKOV3 cell line was treated with 0.05 μM paclitaxel. For the morphological analysis of the cells, the cells treated with None (a group that was treated with nothing), DMSO (a paclitaxel solvent), ethanol (EtOH) (an S-form solvent), DMSO+EtOH, paclitaxel, paclitaxel+ethanol (Pacli+EtOH), and 102 S-forms were analyzed after 1, 2, and 3 days, and images were captured. For cellular metabolism analysis, WST-1 analyses were performed after 3 days of the combined treatment with paclitaxel and S-forms. The cell survival rates were analyzed on the same experimental groups using a crystal violet staining method.
(§2) The two cell lines growing on a 12-well plate were pretreated with an S-form at a low concentration (0.5 μM) and a high concentration (2 μM) for 4 hours, and the SKOV3-TR cell line was then treated with 0.9 μM doxetaxel, and the SKOV3 cell line was treated with 0.5 μM doxetaxel. For the morphological analysis of the cells, the cells treated with None (a group that was treated with nothing), DMSO (a doxetaxel solvent), ethanol (EtOH) (an S-form solvent), DMSO+EtOH, doxetaxel, doxetaxel+ethanol (Doxetaxel+EtOH), and S-forms were analyzed after 1, 2, and 3 days, and images were captured. For cellular metabolism analysis, WST-1 analyses were performed after 3 days of the combined treatment with doxetaxel and S-forms. The cell survival rates were analyzed on the same experimental groups using a crystal violet staining method.
Based on the crystal violet staining in which the cell survival rates and the cell counts were analyzed, a decrease in cell counts in SKOV3-TR and SKOV3 by treatment with paclitaxel was induced through a decrease in cell survival rate. […] The crystal violet staining results of SKOV3-TR by treatment with paclitaxel are shown in FIG. 11, and the crystal violet staining results of SKOV3 are shown in FIG. 12. The crystal violet staining results of SKOV3-TR by treatment with doxetaxel are shown in FIG. 25, and the crystal violet staining results of SKOV3 are shown in FIG. 26.
The optical densities at 570 nm were reduced with the decreasing cell counts in the paclitaxel-treated groups due to the phenomena such as the induction of cell death and the inhibition of cell growth in SKOV3-TR and SKOV3, compared to the None or DMSO-treated groups. […] Also, it can be seen that the dose-response relationship was satisfied because a decrease in cell survival rate by paclitaxel in SKOV3-TR was further promoted at a high concentration (2 μM) of the S-forms as compared to a low concentration (0.5 μM) of the S-forms. For the purpose of analysis, images of the 102 experimental groups after the cell lines were stained with crystal violet were captured after 3 days of the treatment. The staining degree was determined by ELISA by measuring the optical densities at 570 nm through dye elution as in the WST-1 analysis. During the ELISA analysis, the baseline was applied to the optical density of the paclitaxel+ethanol (Pacli+EtOH)-treated group as the control group. The optical density results of SKOV3-TR by treatment with the 102 S-forms and the optical density results of SKOV3 by treatment with the 102 S-forms are shown in FIGS. 13 to 20.
The optical densities at 570 nm were reduced with the decreasing cell counts in the doxetaxel-treated groups due to the phenomena such as the induction of cell death and the inhibition of cell growth in SKOV3-TR and SKOV3, compared to the None or DMSO-treated groups. […] Also, it can be seen that the dose-response relationship was satisfied because a decrease in cell survival rate by doxetaxel in SKOV3-TR was further promoted at a high concentration (2 μM) of the S-forms as compared to a low concentration (0.5 μM) of the S-forms. […]

SKOV3-TR [2] = experiment: WST-1 analysis of cellular metabolism, resistant line; conditions: 4 μM paclitaxel or 0.9 μM doxetaxel, 3 days, compared to None or DMSO-treated groups
Method: (§3) A cell experiment was performed on an epithelial ovarian cancer cell line SKOV3 and SKOV3-TR which is derived therefrom and produced as a resistant cancer cell line to having resistance to the anticancer drug paclitaxel.
as §1, with “For cellular metabolism analysis, WST-1 analyses were performed after 3 days of the combined treatment with paclitaxel and S-forms.” left out
(§4) The two cell lines growing on a 12-well plate were pretreated with an S-form at a low concentration (0.5 μM) and a high concentration (2 μM) for 4 hours, and the SKOV3-TR cell line was then treated with 0.9 μM doxetaxel, and the SKOV3 cell line was treated with 0.5 μM doxetaxel. […] The cell survival rates were analyzed on the same experimental groups using a crystal violet staining method. […]

SKOV3 [3] = experiment: WST-1 analysis of cellular metabolism, parental line; conditions: 0.05 μM paclitaxel or 0.5 μM doxetaxel, 3 days, compared to None or DMSO-treated groups
Method: as §3
as §1, with “For cellular metabolism analysis, WST-1 analyses were performed after 3 days of the combined treatment with paclitaxel and S-forms.” left out
as §4

SKOV3 [4] = experiment: Crystal violet staining, cell survival rate and cell count, parental line; conditions: 0.05 μM paclitaxel or 0.5 μM doxetaxel, 3 days, compared to None or DMSO-treated groups
Method: as §1, with “For cellular metabolism analysis, WST-1 analyses were performed after 3 days of the combined treatment with paclitaxel and S-forms.” left out
as §2, with “For cellular metabolism analysis, WST-1 analyses were performed after 3 days of the combined treatment with doxetaxel and S-forms. The cell survival rates were analyzed on the same experimental groups using a crystal violet staining method.” left out

Row | SMILES | anticancer-enhancing effect of doxetaxel, optical density at 570 nm (crystal violet) (SKOV3-TR [1]) | anticancer-enhancing effect of paclitaxel, optical density at 570 nm (crystal violet) (SKOV3-TR [1]) | optical density at 450 nm (WST-1), anticancer drug alone (SKOV3-TR [2]) | optical density at 450 nm (WST-1), anticancer drug alone (SKOV3 [3]) | optical density at 570 nm (crystal violet), anticancer drug alone (SKOV3-TR [1]) | optical density at 570 nm (crystal violet), anticancer drug alone (SKOV3 [4])
1 | CCc1sc2ccccc2c1CN1CCN2C(=O)C(C3CCCCC3)NC(=O)C2C1 (stereo not drawn) [S105] | exhibited the anticancer-enhancing effect | exhibited the anticancer-enhancing effect |  |  |  | 
2 | CC(=O)O[C@H]1C(=O)[C@@]2(C)[C@H]([C@H](OC(=O)c3ccccc3)[C@]3(O)C[C@H](OC(=O)[C@H](O)[C@@H](NC(=O)c4ccccc4)c4ccccc4)C(C)=C1C3(C)C)[C@]1(OC(C)=O)CO[C@@H]1C[C@@H]2O [paclitaxel] |  |  | reduced | reduced | reduced | reduced
3 | CCc1sc2ccccc2c1CN1CCN2C(=O)CNC(=O)C2C1 (stereo not drawn) [S101, 2-((2-ethylbenzothiophene-3-yl)methyl)hexahydro-2H-pyrazino[1,2-a]pyrazine-6,9-dione] | exhibited the anticancer-enhancing effect | exhibited the anticancer-enhancing effect |  |  |  | 
4 | CC(=O)O[C@@]12CO[C@@H]1C[C@H](O)[C@@]1(C)C(=O)[C@H](O)C3=C(C)[C@@H](OC(=O)[C@H](O)[C@@H](NC(=O)OC(C)(C)C)c4ccccc4)C[C@@](O)([C@@H](OC(=O)c4ccccc4)[C@H]21)C3(C)C [doxetaxel] |  |  | reduced | reduced | reduced | reduced
